From US11090304B2 (Amgen Inc., priority 2018, dated 2021) come the findings set out here.

Read-outs that look alike come from different tables or passages of the source.

For test [1], the target named is GDP-bound KRAS protein (aa 1-169), containing both G12C and C118A amino acid substitutions (Homo sapiens, UniProt P01116, C118A/G12C). In words: Coupled nucleotide exchange assay (SOS-mediated, AlphaScreen). Type of test: biochemical. To be noted: 5 min compound pre-incubation. For orientation: In Alpha technology, singlet oxygen from a donor bead excites a nearby acceptor bead.
Sequence of GDP-bound KRAS protein (aa 1-169), containing both G12C and C118A amino acid substitutions (P01116 1-169 isoform P01116-2 G12C/C118A): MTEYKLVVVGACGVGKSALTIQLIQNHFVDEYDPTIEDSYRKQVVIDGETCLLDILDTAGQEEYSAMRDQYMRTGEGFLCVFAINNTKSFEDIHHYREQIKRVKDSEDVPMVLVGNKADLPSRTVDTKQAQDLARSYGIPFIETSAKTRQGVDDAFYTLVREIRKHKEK

Test [2] concerns Phosphorylation of ERK1/2 in MIA PaCa-2 cells. Briefly: Phospho-ERK1/2 MSD assay in MIA PaCa-2 cells. The format is cell-based. As to conditions: read-out: p-ERK IC50 (2 h; MIA PaCa-2), 2 h compound treatment. In a few lines: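 IC50 comes from a 4-parameter logistic fit of MSD phospho-ERK1/2 signal in lysates. Before lysis, MIA PaCa-2 or A549 cells were exposed to titrated compound for 2 or 4 h at 37 °C, followed by a 10 min 10 ng/mL EGF stimulus.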

As for `C=CC(=O)N1CCN(c2nc(=O)n(-c3c(C4CC4)ccnc3C)c3nc(-c4ccccc4F)c(F)cc23)[C@@H](C)C1` (single isomer, unassigned) [Example 58-20-2], the “Coupled exchange IC50 (5 min)” value in test [1] is given as 0.807 | nda μM. Also, the IC50 (commonly the concentration at which inhibition is half-maximal) in test [2] (Homo sapiens, MIA PaCa-2, 2 h) amounted to 410 nM.

With `C=CC(=O)N1C[C@@H](C)N(c2nc(=O)n(-c3c(C(C)C)ncnc3C(C)C)c3nc(-c4ccccc4F)c(Cl)cc23)[C@@H](C)C1` [Example 87-2, 6-chloro-4-((2R,6S)-2,6-dimethyl-4-(2-propenoyl)-1-piperazinyl)-1-(4,6-di(2-propanyl)-5-pyrimidinyl)-7-(2-fluorophenyl)pyrido[2,3-d]pyrimidin-2(1H)-one], the “Coupled exchange IC50 (5 min)” value in test [1] is 0.035 | nda μM. The IC50 in test [2] (Homo sapiens, MIA PaCa-2, 2 h) was found to be 33 nM.

As to `C=CC(=O)N1CCN(c2nc(=O)n(-c3c(C)cccc3C(C)C)c3nc(-c4c(O)cccc4Cl)c(F)cc23)[C@@H](C)C1` (single isomer, unassigned) [Example 68-1-2], the “Coupled exchange IC50 (5 min)” value in test [1] was 0.613 | nda μM. Besides, the IC50 in test [2] was 735 nM.

Turning to `C=CC(=O)N1CCN(c2nc(=O)n(-c3c(C)cccc3C(C)C)c3nc(-c4nc(N)ccc4F)c(Cl)cc23)[C@@H](C)C1` [Example 70-4, 7-(6-amino-3-fluoro-2-pyridinyl)-6-chloro-1-(2-methyl-6-(2-propanyl)phenyl)-4-((2S)-2-methyl-4-(2-propenoyl)-1-piperazinyl)pyrido[2,3-d]pyrimidin-2(1H)-one], the “Coupled exchange IC50 (5 min)” value in test [1] is 0.398 | nda μM. The IC50 in test [2] (Homo sapiens, MIA PaCa-2, 2 h) came out at 280 nM.

With `C=CC(=O)N1CCN(c2nc(=O)n(-c3c(C)ccnc3C(C)C)c3nc(-c4ccccc4F)c(C)nc23)[C@@H](C)C1` (single isomer, unassigned) [Example 143-1], the “Coupled exchange IC50 (5 min)” value in test [1] is 2.72 | nda μM. Moreover, in test [2], the IC50 stood at 3540 nM.

With `C=CC(=O)N1CCN(c2nc(=O)n(-c3c(C)noc3C(C)C)c3nc(-c4ccc(F)cc4F)c(Cl)cc23)[C@@H](C)C1` [Example 55-12, 6-chloro-7-(2,4-difuorophenyl)-1-(3-methyl-5-(2-propanyl)-1,2-oxazol-4-yl)-4-((2S)-2-methyl-4-(2-propenoyl)-1-piperazinyl)pyrido[2,3-d]pyrimidin-2(1H)-one], the “Coupled exchange IC50 (5 min)” value in test [1] is 0.583 | nda μM. Further, in test [2] (Homo sapiens, MIA PaCa-2, 2 h), the IC50 was 775 nM.

Take `C=CC(=O)N1CCN(c2nc(=O)n(-c3ccccc3C(C)C)c3nc(-c4ccc(F)cc4O)c(Cl)cc23)[C@@H](C)C1` (single isomer, unassigned) [Example 54-77-2]: the “Coupled exchange IC50 (5 min)” value in test [1] is recorded as 0.136 | nda μM. Further, the IC50 in test [2] (Homo sapiens, MIA PaCa-2, 2 h) amounted to 176 nM.

For the compound `C=CC(=O)N1CCN(c2nc(=O)n(-c3cccnc3C(C)(C)C)c3nc(-c4ccccc4F)c(Cl)cc23)[C@@H](C)C1` (single isomer, unassigned) [Example 54-112-1], the “Coupled exchange IC50 (5 min)” value in test [1] is recorded as 0.075 | nda μM. In addition, the IC50 in test [2] (Homo sapiens, MIA PaCa-2, 2 h) came to 125 nM.

In the case of `C=CC(=O)N1CCN(c2nc(=O)n(-c3c(C)ncnc3C3CC3)c3nc(-c4ccccc4F)c(Cl)cc23)[C@@H](C)C1` (single isomer, unassigned) [Example 60-30-2], the “Coupled exchange IC50 (5 min)” value in test [1] is on record as 0.108 | nda μM. Further, the IC50 in test [2] (Homo sapiens, MIA PaCa-2, 2 h) worked out at 81 nM.

In the case of `C=CC(=O)N1CCN(c2nc(=O)n(-c3ccccc3C(C)C)c3nc(-c4cc(O)ccc4Cl)c(Cl)cc23)[C@@H](C)C1` (single isomer, unassigned) [Example 54-90-1], in test [1], the “Coupled exchange IC50 (5 min)” value is listed as 0.047 | nda μM. Besides, in test [2], the IC50 came out at 63 nM.

Regarding `C=CC(=O)N1CCN(c2nc(=O)n(-c3c(C)cccc3C3CC3)c3nc(-c4ccccc4F)c(Cl)cc23)[C@@H](C)C1` (single isomer, unassigned) [Example 56-5-1], the “Coupled exchange IC50 (5 min)” value in test [1] is recorded as 0.154 | nda μM. Moreover, in test [2], the IC50 amounted to 188 nM.

In the case of `C=CC(=O)N1CCN(c2nc(=O)n(-c3ncccc3CC)c3nc(-c4ccccc4F)c(Cl)cc23)[C@@H](C)C1` [Example 54-15, 6-chloro-1-(3-ethyl-2~ pyridinyl)-7-(2-fluorophenyl)-4-((2S)-2-methyl-4-(2-propenoyl)-1-piperazinyl) pyrido[2,3-d]pyrimidin-2(1H)-one], the “Coupled exchange IC50 (5 min)” value in test [1] was 0.564 | nda μM. Further, the IC50 in test [2] (Homo sapiens, MIA PaCa-2, 2 h) was found to be 347 nM.

For `C=CC(=O)N1CCN(c2nc(=O)n(-c3ccccc3C3CCC3)c3nc(-c4c(O)cccc4F)c(Cl)cc23)[C@@H](C)C1` (single isomer, unassigned) [Example 54-10-2], in test [1], the “Coupled exchange IC50 (5 min)” value is reported as 0.071 | nda μM. Further, in test [2] (Homo sapiens, MIA PaCa-2, 2 h), the IC50 turned out to be 60 nM.

Consider `C=CC(=O)N1CCN(c2nc(=O)n(-c3ccccc3C(C)C)c3nc(-c4c(F)cccc4C#N)c(Cl)cc23)[C@@H](C)C1` (single isomer, unassigned) [Example 98-1], for which the “Coupled exchange IC50 (5 min)” value in test [1] is recorded as 0.193 | nda μM. Moreover, in test [2] (Homo sapiens, MIA PaCa-2, 2 h), the IC50 amounted to 155 nM.

For the compound `C=CC(=O)N1CCN(c2nc(=O)n(-c3c(C(C)C)ncc(O)c3C)c3nc(-c4ccccc4F)c(Cl)cc23)[C@@H](C)C1` (single isomer, unassigned) [Example 83-2], the “Coupled exchange IC50 (5 min)” value in test [1] was 0.035 | nda μM. In addition, the IC50 in test [2] (Homo sapiens, MIA PaCa-2, 2 h) was found to be 84 nM.

For `C=CC(=O)N1CCN(c2nc(=O)n(-c3c(C)nc(C)nc3C(C)C)c3nc(-c4c(O)cccc4F)c(Cl)cc23)[C@@H](C)C1` [Example 55-4, 6-chloro-1-(2,4-dimethyl-6-(2-propanyl)-5-pyrimidinyl)-7-(2-fluoro-6-hydroxyphenyl)-4-((2S)-2-methyl-4-(2-propenoyl)-1-piperazinyl)pyrido[2,3-d]pyrimidin-2(1H)-one], in test [1], the “Coupled exchange IC50 (5 min)” value is 0.057 | nda μM. Also, the IC50 in test [2] (Homo sapiens, MIA PaCa-2, 2 h) turned out to be 80 nM.

On to `C=CC(=O)N1CCN(c2nc(=O)n(-c3c(OC)cccc3C(C)C)c3nc(-c4ccccc4F)c(Cl)cc23)[C@@H](C)C1` [Example 60-19, 6-chloro-7-(2-fluorophenyl)-1-(2-methoxy-6-(2-propanyl)phenyl)-4-((2S)-2-methyl-4-(2-propenoyl)-1-piperazinyl)pyrido[2,3-d]pyrimidin-2(1H)-one], for which the “Coupled exchange IC50 (5 min)” value in test [1] was 0.137 | nda μM. For the same compound, in test [2] (Homo sapiens, MIA PaCa-2, 2 h), the concentration for half-maximal inhibition (IC50) came out at 156 nM.

For the compound `C=CC(=O)N1CCN(c2nc(=O)n(-c3c(C)ncnc3C(C)C)c3nc(-c4ccccc4F)c(Cl)cc23)[C@@H](C)C1` [Example 55-13, 6-chloro-7-(2-fluorophenyl)-1-(4-methyl-6-(2-propanyl)-5-pyrimidinyl)-4-((2S)-2-methyl-4-(2-propenoyl)-1-piperazinyl)pyrido[2,3-d]pyrimidin-2(1H)-one], in test [1], the “Coupled exchange IC50 (5 min)” value is 0.191 | nda μM. Also, the IC50 in test [2] (Homo sapiens, MIA PaCa-2, 2 h) is 179 nM.

For the compound `C=CC(=O)N1CCN(c2nc(=O)n(-c3ncccc3CC(C)C)c3nc(-c4ccccc4F)c(Cl)cc23)[C@@H](C)C1` [Example 54-102, 6-chloro-7-(2-fluorophenyl)-4-((2S)-2-methyl-4-(2-propenoyl)-1-piperazinyl)-1-(3-(2-methylpropyl)-2-pyridinyl) pyrido[2,3-d]pyrimidin-2(1H)-one], in test [1], the “Coupled exchange IC50 (5 min)” value was 0.161 | nda μM. For the same compound, in test [2] (Homo sapiens, MIA PaCa-2, 2 h), the IC50 came out at 176 nM.
